How the values were obtained:
DAOY and T98G cells = assay: Flow cytometry of NQ-DCP activation; assay type: cell-based, human; conditions: 10 μM, λem=586/40, about 1×10^4 cells
Method: Applicability of NQ-DCP for Flow Cytometry. Flow cytometry assays were used to assess the applicability of the NQ-DCP probe to rapidly detect and quantify tumor cells containing hNQO1. The probe was incubated with cell suspensions (DAOY and T98G) for 30 min and a flowcytometry was used to measure the fluorescence (λem=586/40) in about 1×10^4 individual cells.
(§1) Cell Culture, Fluorescence Imaging, and Flow Cytometry Analysis. Brain tumor cells and astrocytes were grown in Dulbecco's modified Eagle's (DMEM) medium containing 10% Fetal Bovine Serum and 1% penicillin/streptomycin in a humidified atmosphere of 5% CO2 at 37° C. For fluorescence imaging, initially, cells were seeded into 6-well plate and cultured overnight in respective media at 37° C. Media was replaced with fresh medium containing 10 μM NQ-DCP and incubated at 37° C. for 60 min and then the medium was replaced with PBS and live cells were imaged using a fluorescence microscope. For inhibitor study, cells were pretreated with NQO1 inhibitor ES936 (100 nM) for 6 h before adding the NQ-DCP. For determining endogenous hNQO1 activity in cancer cells using flow cytometry, about 10×10^4 cells were incubated with 10 μM of NQ-DCP for 60 min and were analyzed using flow cytometry.

hNQO1 in T98G cells = assay: siRNA knockdown of NQO1 and NQ-DCP activation; assay type: cell-based, human; conditions: compared with a siRNA control, 10 μM probe
Method: Evaluation of Specificity in Cancer Cells. To show the substrate selectivity of NQ-DCP for hNQO1, T98G cells were pretreated with 100 nM of NQO1 inhibitor ES936 for 6 h and incubated 10 μM of NQ-DCP.
Knockdown of NQO1 by Small Interfering RNA (siRNA). NQO1 siRNA (a pool of 3 target-specific 19-25 nt siRNAs, Santa Cruz Biotechnology, Inc., (Dallas, TX, USA) and scrambled siRNAs were introduced into cells using the X-tremeGENE siRNA transfection reagent (Roche, Basel, Switzerland) according to the manufacturer's instructions with 80 pmol of NQO1 siRNA and 10 μl of transfection reagent per well of a six-well plate for T98G cells.

NQO1 = NQO1 (Homo sapiens, UniProt P15559); assay: Selectivity of NQ-DCP towards hNQO1 over other biomolecules/enzymes; assay type: biochemical; conditions: 10 μM probe, 30 min; GSH, ALDH1A1, GGT, GPx, APE1, CBS, CTSL, GST-pi, NTR, NADH
Sequence of NQO1 (P15559 whole entry): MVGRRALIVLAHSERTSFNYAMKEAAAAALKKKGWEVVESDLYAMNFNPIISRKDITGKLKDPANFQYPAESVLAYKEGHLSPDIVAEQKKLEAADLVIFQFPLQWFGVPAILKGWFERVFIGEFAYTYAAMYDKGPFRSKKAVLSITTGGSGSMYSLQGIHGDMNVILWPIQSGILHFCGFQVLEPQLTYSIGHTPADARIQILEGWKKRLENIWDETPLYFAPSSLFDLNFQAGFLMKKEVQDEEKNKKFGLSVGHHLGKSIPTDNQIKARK
Method: Selectivity of NQ-DCP Towards hNQO1. The specificity of NQ-DCP probe towards hNQO1 was studied by determining its reactivity towards various biomolecules such as the glutathione (GSH, 1 mM), aldehyde dehydrogenase 1 (ALDH1A1, 2.5 μg/mL), gamma-glutamyl transferase (GGT, 10 U), glutathione Peroxidase (GPx, 10 U), apurinic/apyrimidinic endonuclease (APE1, 10 U), cystathionine-β-synthase (CBS, 2 μg/mL), cathepsin L (CTSL, 2 μg/mL), glutathione S-transferase (GST-pi, 2 μg/mL), nitroreductase (NTR, 2 μg/mL) and NADH (100 μM) alone or the combination of and NQO1 (2.5 μg/mL). […] To gain more insight into the specificity of the probe towards hNQO1, the enzyme was pre-treated with ES936 (0-100 nM), a well-known hNQO1 inhibitor [39] and then incubated with NQ-DCP.
Selectivity Evaluation. To study the interference, NQ-DCP was incubated with various biologically relevant analytes such as thiols and other enzymes for 30 min with or without the addition of 100 μM NADH. Fluorescence spectra were analyzed to determine NQ-DCP specificity against hNQO1.

[1] = system: normal (astrocytes) cells; assay: Fluorescence microscopy of NQ-DCP in hNQO1 negative normal cells; assay type: cell-based; conditions: 10 μM, 60 min
Method: (§2) Visualization of Cancer Cells by Fluorescence Imaging of hNQO1. […] The cytotoxicity of NQ-DCP was initially evaluated in cultured brain tumor (DAOY, T98G, and U87MG) and normal (astrocytes) cells to assess its biocompatibility using the resazurin reduction assay. […] Cells were incubated with NQ-DCP (10 μM) for 60 min, washed with PBS and were imaged under a fluorescence microscope.
as §1

[2] = system: DAOY, T98G, and U87MG cells; assay: Fluorescence microscopy of NQ-DCP in hNQO1 positive cancer cells; assay type: cell-based, human
Method: as §2, §1

[3] = system: A549 and MDA-MB-231 tumors; assay: In vivo imaging of NQO1-positive (A549) and -negative (MDA-MB-231) xenografts in the same animal with NIR-ASM; set-up: species or system nude mice; conditions: intravenous, tumors of 200 mm^3
Method: Additionally, to validate the NQO1-specific activation of NIR-ASM to generate fluorescence, the inventors generated NQO1-positive (A549) and -negative (MDA-MB-231) xenografts in the same animal by injecting the corresponding tumor cells on the left and right flanks of the nude mice respectively. When tumors reached a volume of 200 mm^3, NIR-ASM was administered through intravenous injection and the animals were imaged using the In Vivo imager.
In vivo bioimaging. The animal study protocol was approved by the Institutional Animal Use and Care Committee (IACUC), Texas Tech University Health Sciences Center, Protocol number: 07050. All experimental protocols used in this study were approved by IACUC, Texas Tech University Health Sciences Center and all the methods were carried out according to the committee guidelines. Female athymic nude mice (nu/nu, 4-6 weeks) were purchased from Charles River Laboratories (Wilmington, MA, USA). BALB/c57 mice were provided by Dr. Constantinos Mikelis of our University. To establish A549 or MDA-MB-231 xenografts, a total of 5×10^6 cells (in 0.1 ml of serum-free media and Matrigel (1:1)) were subcutaneously injected into the flanks of the mice. […] All animals were monitored for activity, physical condition, body weight, and tumor growth. […] Fluorescence represented in log values of radiance is photons per second per square centimeter per steradian.

## CC1=C(C)C(=O)C(C(C)(C)CC(=O)Oc2ccc(/C=C/C3=CC(=C(C#N)C#N)CC(C)(C)C3)cc2)=C(C)C1=O [NQ-DCP]
DAOY and T98G cells
  flow cytometry fluorescence signal: high-intensity unimodal distribution of signal
hNQO1 in T98G cells
  decrease in fluorescence after siRNA silencing of the hNQO1 gene: 90-95%
NQO1
  selectivity for hNQO1 over the other enzymes/substrates tested: high selectivity
[1]
  fluorescence signal in normal cells: no signals were observed
[2]; 10 μM, 60 min
  fluorescence signal in cancer cells: bright fluorescence signals
[2]; inferred from intracellular activation
  cell permeability: good cell permeability

## CC1=C(C)C(=O)C(C(C)(C)CC(=O)Nc2ccc(/C=C/C3=CC(=C(C#N)C#N)CC(C)(C)C3)cc2)=C(C)C1=O [NIR-ASM, (E)-N-(4-(2-(3-(dicyanomethylene)-5,5-dimethylcyclohex-1-en-1-yl)vinyl)phenyl)-3-methyl-3-(2,4,5-trimethyl-3,6-dioxocyclohexa-1,4-dien-1-yl)butanamide]
[3]
  fluorescence signal, NQO1-positive A549 tumor: observed only from the A549 tumor
  fluorescence signal, NQO1 negative MDAMB-231 tumors: no signal was discernible

From patent US11957766B2, “HNQO1-activatable fluorescent probe for imaging cancer cells in-vitro and in-vivo” (Texas Tech University System, priority 2019, dated 2024)
